According to US20240383874A1, “BENZENE RING DERIVATIVE, AND COMPOSITION AND PHARMACEUTICAL USE THEREOF” (Xizang Haisco Pharmaceutical Co., Ltd., priority 2020, published 2024):
Counter-ions that a name gives are not always drawn. Like-named read-outs stand apart in the source and are kept apart here.

Legend:
full-length AR (AR-FL) = experiment: Degradation experiment on full-length AR (AR-FL) in 22RV1 cells; type: cell-based; conditions: 24 h, relative to vehicle control
Description: (§1) Prostate cancer cells 22RV1 were purchased from ATCC, the cell medium was 1640+10% FBS, and the cells were cultured in an incubator at 37° C. under 5% CO2. On day 1, the cells in an exponential phase were collected. With a 1% css-FBS phenol red-free medium, the cell suspension was adjusted to a corresponding concentration and plated into a 6-well plate at 1 mL/well and 100000 cells/well. The next day, a 1% css-FBS phenol-free medium containing the compound to be tested was added, a 1% css-FBS phenol-free medium containing 0.2% DMSO was added to one well as DMSO vehicle control, and the 6-well plate was cultured in an incubator at 37° C. under 5% CO2. After 24 h, the cells were digested with pancreatin and collected into a 1.5 mL centrifuge tube. 15 μL of RIPA lysate (containing 1×protease inhibitor cocktail) was added to each well, and the cells were lysed on ice for 15 min and then centrifuged at 12000 g and 4° C. for 10 min. The supernatant protein samples were collected, and protein quantification was performed by a BCA method. AR-FL and AR-Vs were detected using fully automatic protein expression quantitative analysis, which involved diluting the protein to be tested to 1 mg/mL. 4 μL of the diluted protein samples were added to 1 μL of 5×Master Mix (provided in the kit), and the prepared samples were denatured at 95° C. for 5 min and placed on ice for use. The primary antibodies, AR (CST, 5153S) and β-actin (CST, 3700), were diluted with Antibody Diluent II (provided in the kit) at a dilution ratio of 1:20 and 1:200, respectively. The secondary antibody was a mixed goat anti-mouse and goat anti-rabbit secondary antibody in a ratio of 1:1, and the color development solution was a mixed solution of Lumino-S and Peroxide in a ratio of 1:1. The prepared reagents were successively added to an assay plate according to instructions of the kit and detected on an instrument. Western blot band processing was performed using “Compass for SW”, a fully automatic protein expression quantitative analysis software, in which western blot bands were automatically simulated based on signal values. The degradation rate of AR-FL (3) or AR-Vs (4) relative to vehicle control at different compound concentrations was calculated according to formulas (3) and (4), wherein AR-FLcompound was the relative peak area of AR-FL in the treated group, and AR-FLsolvent was the relative peak area of AR-FL in the vehicle control group; AR-Vscompound was the relative peak area of AR-Vs in the treated group, and AR-Vssolvent was the relative peak area of AR-Vs in the vehicle control group.
(§2) DC50 calculation: the compound concentration DC50 values at which the degradation rate of AR-FL or AR-Vs was 50% were calculated using OriginPro2015 software and analyzed using DoseResp function according to formula (3) or (4).

[1] = tested on: AR splice variants (AR-Vs); experiment: Degradation experiment on AR splice variants (AR-Vs) in 22RV1 cells; type: cell-based; conditions: 24 h, relative to vehicle control
Description: as §1, §2

22RV1 cells = experiment: Experiment 2 on inhibiting 22RV1 cell proliferation (7 days, CellTiter-Glo); type: cell-based; conditions: 1% css-FBS phenol red-free medium, incubated with compound 7 days, read-out: IC50 values on proliferation inhibition of 22RV1 cells
Method in brief: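 22RV1 cells plated at 2000/well in phenol red-free medium with 1% css-FBS and treated next day with compound for 7 days at 37 °C. Viability read by CellTiter-Glo luminescence relative to DMSO vehicle; IC50 from dose-response fit.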

[2] = Pharmacokinetic test in rats; type: in vivo; conditions: rat, po; male SD rats, single dose i.g. 5 mg/kg, plasma, 0-24 h
Description: Test objective: in this test, a single dose of test compounds was administered to SD rats intragastrically, and the concentrations of the test compounds in plasma of the rats were measured to evaluate pharmacokinetic characteristics of the test compounds in the rats.
Test animals: male SD rats, 200-250 g, 6-8 weeks old, 3 rats/compound, purchased from Chengdu Dossy Experimental Animals Co., Ltd.
Test method: on the day of the test, 3 SD rats were randomly grouped according to their body weights. The animals were fasted with water available for 12 to 14 hours one day before the administration of a test compound, and were fed 4 hours after the administration.
Sampling: before and after the administration, 0.1 mL of blood was taken from the orbits of the rats under isoflurane anesthesia, and placed in an EDTAK2 centrifuge tube. Centrifugation was carried out at 5000 rpm at 4C for […], and the plasma was collected.
Time points for plasma collection in G1 group: 0, 5 min, 15 min, 30 min, 1 h, 2 h, 4 h, 6 h, 8 h, and 24 h.
Before analysis and detection, all samples were stored at −80° C. The samples were analyzed quantitatively by LC-MS/MS.

IC50 (22RV1 cells)	AUC(0-t) [2]	IC50 (22RV1 cells; Homo sapiens, 22Rv1, 168 h)	Structure (SMILES)	AR-FL Dmax % (maximum degradation rate) (full-length AR (AR-FL))	AR-Vs Dmax % (maximum degradation rate) [1]
			CC(C)(c1ccc(OCc2ccnc(N3CCN(C4CCN(C5CN(c6ccc7c(c6)C(=O)N(C6CCC(=O)NC6=O)C7=O)C5)CC4)CC3)n2)cc1)c1cc(Cl)c(OCCCl)c(C#N)c1 (stereo not shown) [Compound 5 trifluoroacetate, 3-chloro-2-(2-chloroethoxy)-5-(2-(4-((2-(4-(1-(1-(2-(2,6-dioxopiperidin-3-yl)-1,3-dioxoisoindolin-5-yl)azetidin-3-yl)piperidin-4-yl)piperazin-1-yl)pyrimidin-4-yl)methoxy)phenyl)propan-2-yl)benzonitrile (Compound 5) trifluoroacetate]	52.5%	
			Cn1c(=O)n(C2CCC(=O)NC2=O)c2cccc(CN3CC(N4CCC(N5CCN(c6nccc(COc7ccc(C(C)(C)c8cc(Cl)c(OCCCl)c(C#N)c8)cc7)n6)CC5)CC4)C3)c21 (stereo not shown) [Compound 6 trifluoroacetate, 3-chloro-2-(2-chloroethoxy)-5-(2-(4-((2-(4-(1-(1-((1-(2,6-dioxopiperidin-3-yl)-3-methyl-2-oxo-2,3-dihydro-1H-benzol[d]imidazol-4-yl)methyl)azetidin-3-yl)piperidin-4-yl)piperazin-1-yl)pyrimidin-4-yl)methoxy)phenyl)propan-2-yl)benzonitrile (Compound 6) trifluoroacetate]	57.6%	
			Cn1c(=O)n(C2CCC(=O)NC2=O)c2cccc(CN3CC(N4CCC(N5CCN(c6nccc(COc7ccc(C(C)(C)c8cc(Cl)cc(C#N)c8)cc7)n6)CC5)CC4)C3)c21 (stereo not shown) [Compound 9 trifluoroacetate, 3-chloro-5-(2-(4-((2-(4-(1-(1-((1-(2,6-dioxopiperidin-3-yl)-3-methyl-2-oxo-2,3-dihydro-1H-benzo[d]imidazol-4-yl)methyl)azetidin-3-yl)piperidin-4-yl)piperazin-1-yl)pyrimidin-4-yl)methoxy)phenyl)propan-2-yl)benzonitrile (Compound 9) trifluoroacetate]	68.3%	76.8%
562 nM			CC(C)(c1ccc(OCc2ccnc(N3CCN(C4CCN(C5CN(c6ccc7c(c6)C(=O)N(C6CCC(=O)NC6=O)C7=O)C5)CC4)CC3)n2)cc1)c1cc(Cl)cc(C#N)c1 (stereo not shown) [Compound 10, 3-chloro-5-(2-(4-((2-(4-(1-(1-(2-(2,6-dioxopiperidin-3-yl)-1,3-dioxoisoindolin-5-yl)azetidin-3-yl)piperidin-4-yl)piperazin-1-yl)pyrimidin-4-yl)methoxy)phenyl)propan-2-yl)benzonitrile]		64%
452 nM			CCOc1c(Cl)cc(C(C)(C)c2ccc(OCc3ccnc(N4CCN(C5CCN(C6CN(Cc7cccc8c7n(C)c(=O)n8C7CCC(=O)NC7=O)C6)CC5)CC4)n3)cc2)cc1C#N (stereo not shown) [Compound 18, 3-chloro-5-(2-(4-((2-(4-(1-(1-((1-(2,6-dioxopiperidin-3-yl)-3-methyl-2-oxo-2,3-dihydro-1H-benzo[d]imidazol-4-yl)methyl)azetidin-3-yl)piperidin-4-yl)piperazin-1-yl)pyrimidin-4-yl)methoxy)phenyl)propan-2-yl)-2-ethoxybenzonitrile]	53%	91%
	563 ± 350 ng·h/mL	446 nM	CC(C)(c1ccc(OCc2ccnc(N3CCC(CN4CCC(C5CCN(c6ccc(C(=O)NC7CCC(=O)NC7=O)nc6)CC5)CC4)CC3)n2)cc1)c1cc(Cl)cc(C#N)c1 (stereo not shown) [Compound 110 trifluoroacetate, 5-(1′-((1-(4-((4-(2-(3-chloro-5-cyanophenyl)propan-2-yl)phenoxy)methyl)pyrimidin-2-yl)piperidin-4-yl)methyl)-[4,4′-bipiperidin]-1-yl)-N-(2,6-dioxopiperidin-3-yl)picolinamide]		56%
			Cn1c(=O)n(C2CCC(=O)NC2=O)c2cccc(CN3CCC(CN4CCC(C5CCN(c6nccc(COc7ccc(C(C)(C)c8cc(Cl)c(OCCCl)c(C#N)c8)cc7)n6)CC5)CC4)CC3)c21 (stereo not shown) [Compound 126 trifluoroacetate, 3-chloro-2-(2-chloroethoxy)-5-(2-(4-((2-(1′-((1-((1-(2,6-dioxopiperidin-3-yl)-3-methyl-2-oxo-2,3-dihydro-1H-benzo[d]imidazol-4-yl)methyl)piperidin-4-yl)methyl)-[4,4′-bipiperidin]-1-yl)pyrimidin-4-yl)methoxy)phenyl)propan-2-yl)benzonitrile]	98%	95%
483 nM	665 ± 264 ng·h/mL		CC(C)(c1ccc(OCc2ccnc(N3CCC(CN4CCC(C5CCN(c6ccc7c(c6)C(=O)N(C6CCC(=O)NC6=O)C7=O)CC5)CC4)C3)n2)cc1)c1cc(Cl)cc(C#N)c1 (stereo not shown) [Compound 130, 3-chloro-5-(2-(4-((2-(3-((1′-(2-(2,6-dioxopiperidin-3-yl)-1,3-dioxoisoindolin-5-yl)-[4,4′-bipiperidin]-1-yl)methyl)pyrrolidin-1-yl)pyrimidin-4-yl)methoxy)phenyl)propan-2-yl)benzonitrile]		
507 nM	446 ± 225 ng·h/mL		CC(C)(c1ccc(OCc2ccnc(N3CCC(N4CCC(C5CCN(c6ccc7c(c6)C(=O)N(C6CCC(=O)NC6=O)C7=O)CC5)CC4)CC3)n2)cc1)c1cc(Cl)cc(C#N)c1 (stereo not shown) [Compound 131, 3-chloro-5-(2-(4-((2-(1″-(2-(2,6-dioxopiperidin-3-yl)-1,3-dioxoisoindolin-5-yl)-[4,1′:4′,4″-terpiperidin]-1-yl)pyrimidin-4-yl)methoxy)phenyl)propan-2-yl)benzonitrile]		

Structure (SMILES)	IC50 (22RV1 cells)	AUC(0-t) [2]	IC50 (22RV1 cells; Homo sapiens, 22Rv1, 168 h)	AR-FL Dmax % (maximum degradation rate) (full-length AR (AR-FL))	AR-Vs Dmax % (maximum degradation rate) [1]
CC(C)(c1ccc(OCc2ccnc(N3CCC4(CC3)CCN(C3CC5(CCN(c6ccc7c(c6)C(=O)N(C6CCC(=O)NC6=O)C7=O)CC5)C3)CC4)n2)cc1)c1cc(Cl)cc(C#N)c1 (stereo not shown) [Compound 128, 3-chloro-5-(2-(4-((2-(9-(7-(2-(2,6-dioxopiperidin-3-yl)-1,3-dioxoisoindolin-5-yl)-7-azaspiro[3.5]nonan-2-yl)-3,9-diazaspiro[5.5]undecan-3-yl)pyrimidin-4-yl)methoxy)phenyl)propan-2-yl)benzonitrile]	132 nM	604 ± 149 ng·h/mL			
CC(C)(c1ccc(OCc2ccnc(N3CCC4(CCN(CC5CC6(CCN(c7ccc8c(c7)C(=O)N(C7CCC(=O)NC7=O)C8=O)CC6)C5)CC4)CC3)n2)cc1)c1cc(Cl)cc(C#N)c1 (stereo not shown) [Compound 129, 3-chloro-5-(2-(4-((2-(9-((7-(2-(2,6-dioxopiperidin-3-yl)-1,3-dioxoisoindolin-5-yl)-7-azaspiro[3.5]nonan-2-yl)methyl)-3,9-diazaspiro[5.5]undecan-3-yl)pyrimidin-4-yl)methoxy)phenyl)propan-2-yl)benzonitrile]	569 nM	812 ± 304 ng·h/mL			
